Patent US8334292B1, “Pyrimidine compounds and methods of making and using same” (Cystic Fibrosis Foundation Therapeutics, Inc., priority 2010, dated 2012)

Tests used:
ΔF508 CTFR [1] = biological target: T1, ΔF508 CTFR (Homo sapiens, UniProt P13569, DEL508-508); assay: Potentiator assay, FRT cell electrophysiological (Ussing chamber) assay; type: cell-based; conditions: change in ISC after acute addition of 1 μM compound to mucosal side of vehicle treated FRT cells divided by total change in ISC after 1 μM compound, 100 μM IBMX, 20 μM genistein
T1 construct: expressed in transfected cells; host or cells: FRT epithelial cells (Fischer rat thyroid)
Description: (§1) For use in the corrector assay, FRT epithelial cell monolayers are grown on Snapwell filter inserts and optionally treated with a compound of invention, vehicle (DMSO) or reference corrector N-(2-(5-chloro-2-methoxyphenylamino)-4′-methyl-4,5′-bithiazol-2′-yl)pivalamide (C17). Cells are exposed to compound, vehicle (negative control) or reference corrector (positive control) in a cell/tissue incubator at 37° C. for 24 hours prior to the assay. The inserts are then transferred to a Physiologic Instruments Ussing chamber (P2302) and superfused with 5 ml of a HEPES buffered physiological saline (HB-PS) as the serosal solution with composition (in mM): NaCl, 137; KCl, 4.0; CaCl2, 1.8; MgCl2, 1; HEPES, 10; Glucose, 10; pH adjusted to 7.4 with NaOH. The mucosal solution will be 5 ml of 10CF—PS with composition (in mM): Na-gluconate, 137; KCl, 4; CaCl2, 1.8; MgCl2, 1; HEPES, 10; Glucose, 10; pH adjusted to 7.4 with N-methyl-D-glucamine to create a transepithelial Cl ion gradient. Transepithelial voltage is clamped to 0 mV and the short circuit current (ISC)—reflecting the net ion (Cl—) transport across the epithelial cell monolayer—is measured using a Physiologic Instruments VCC MC8 epithelial voltage clamp (Physiologic Instruments, Inc., San Diego, Calif.). The assay is carried out at 27° C.
(§2) After acquisition of at least 10 minutes of baseline current, agonists (final concentrations: 10 μM forskolin, 100 μM 3-isobutyl-1-methylxanthine [IBMX] and 20 μM genistein) and antagonist (final concentration: 20 μM CFTRinh-172) will be applied sequentially and cumulatively at ˜10-15 minute intervals to both serosal and mucosal epithelial surfaces. On occasion where a 10-15 min interval is not sufficient for ISC to reach a new steady-state after compound addition, the interval between compound additions may have been extended.
(§3) Agonists are added as 200×-1000× stock solutions to both the serosal and mucosal sides. Transepithelial resistance is monitored every 20 s. In a potentiator assay, appropriate volumes from 10 mM compound stock solution in DMSO are added to the mucosal side (i.e. the 10CF—PS solution containing half chamber) of vehicle treated inserts. Compound is added acutely after activation of CFTR by Forskolin and prior to additions of IBMX, genistein, and CFTRinh-172.
(§4) Corrector efficacy—as given in Table 3—is measured as the total change in ISC (i.e. the difference in ISC before and after addition of all agonists) obtained from cells treated with 3 μM compound of invention and normalized to the total change in ISC obtained from the same batch of cells treated contemporaneously with 10 μM reference corrector C17. Potentiator efficacy—as given in Table 3—is measured as the change in ISC after acute addition of 1 μM compound to the mucosal side of vehicle treated cells divided by the total change in ISC after sequential additions of 1 μM compound, 100 μM IBMX, and 20 μM genistein.

ΔF508 CTFR [2] = biological target: T1, ΔF508 CTFR; assay: Corrector assay, FRT cell electrophysiological (Ussing chamber) assay; type: cell-based; conditions: FRT cells treated 24 hours with 3 μM compound; total change in ISC normalized to 10 μM reference corrector C17
Description: as §1, §2, §3, §4

T1 sequence (P13569 with tags, fused parts or gaps DEL508-508): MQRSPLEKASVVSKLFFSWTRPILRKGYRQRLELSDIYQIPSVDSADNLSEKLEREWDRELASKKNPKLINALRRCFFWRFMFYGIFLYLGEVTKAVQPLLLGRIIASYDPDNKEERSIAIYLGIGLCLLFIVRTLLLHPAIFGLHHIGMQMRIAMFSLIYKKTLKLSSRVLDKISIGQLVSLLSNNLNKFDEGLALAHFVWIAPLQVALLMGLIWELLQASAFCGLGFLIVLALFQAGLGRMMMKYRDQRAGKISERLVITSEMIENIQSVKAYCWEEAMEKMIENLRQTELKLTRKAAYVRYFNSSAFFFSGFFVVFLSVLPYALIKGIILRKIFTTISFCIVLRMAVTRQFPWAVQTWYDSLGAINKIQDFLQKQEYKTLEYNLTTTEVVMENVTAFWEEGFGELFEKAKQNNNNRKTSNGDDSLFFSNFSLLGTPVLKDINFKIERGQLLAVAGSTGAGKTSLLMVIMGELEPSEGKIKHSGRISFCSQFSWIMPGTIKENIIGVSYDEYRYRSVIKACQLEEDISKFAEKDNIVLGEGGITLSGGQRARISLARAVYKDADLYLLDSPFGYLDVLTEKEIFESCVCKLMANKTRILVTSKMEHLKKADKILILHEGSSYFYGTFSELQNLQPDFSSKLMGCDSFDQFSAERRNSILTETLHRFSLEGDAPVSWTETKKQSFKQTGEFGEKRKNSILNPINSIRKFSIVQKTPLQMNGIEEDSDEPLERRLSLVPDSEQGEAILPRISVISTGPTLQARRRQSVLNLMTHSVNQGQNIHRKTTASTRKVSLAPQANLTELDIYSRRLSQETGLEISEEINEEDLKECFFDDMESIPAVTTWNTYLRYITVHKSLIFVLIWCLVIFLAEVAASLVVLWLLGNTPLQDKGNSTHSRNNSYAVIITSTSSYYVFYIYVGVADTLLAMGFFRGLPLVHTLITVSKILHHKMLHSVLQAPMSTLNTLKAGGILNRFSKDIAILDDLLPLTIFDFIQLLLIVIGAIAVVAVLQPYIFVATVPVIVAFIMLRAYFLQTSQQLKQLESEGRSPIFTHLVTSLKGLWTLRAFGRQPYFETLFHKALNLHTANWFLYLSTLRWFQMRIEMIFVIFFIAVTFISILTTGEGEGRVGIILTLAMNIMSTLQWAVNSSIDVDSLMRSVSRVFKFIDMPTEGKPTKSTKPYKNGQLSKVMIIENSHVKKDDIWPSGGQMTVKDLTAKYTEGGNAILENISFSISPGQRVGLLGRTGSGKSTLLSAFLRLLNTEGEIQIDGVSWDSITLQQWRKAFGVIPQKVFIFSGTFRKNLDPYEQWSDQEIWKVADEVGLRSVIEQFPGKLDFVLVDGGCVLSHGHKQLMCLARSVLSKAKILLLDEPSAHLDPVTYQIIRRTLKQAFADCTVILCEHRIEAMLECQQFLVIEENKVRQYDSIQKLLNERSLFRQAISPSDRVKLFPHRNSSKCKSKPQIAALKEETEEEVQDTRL

Row | SMILES | Potentiator Efficacy (ΔF508 CTFR [1]) | Corrector Efficacy (ΔF508 CTFR [2])
1 | CS(=O)(=O)N1CC[C@@H](COc2nc(N[C@H]3CC[C@@H](C)CC3)ncc2-c2ccc(N3CCOCC3)cc2)C1 [Example 78] | + (+=<0.1) | ++ (++=0.3-0.6)
2 | CC1CCC(Nc2ncc(-c3ccc(O[C@H]4CCOC4)cc3)c(OC3CN(S(=O)(=O)C4CC4)C3)n2)CC1 (stereo partly drawn) [Example 215, 4-(1-(cyclopropylsulfonyl)azetidin-3-yloxy)-N-((1s,4s)-4-methylcyclohexyl)-5-(4-((S)-tetrahydrofuran-3-yloxy)phenyl)pyrimidin-2-amine] | +++ (+++=>0.25) | +++ (+++=>0.6)
3 | COC(=O)N1CCC(Oc2ccc(-c3cnc(NC4CCC(C)CC4)nc3O[C@@H]3CCOC3)cc2)C1 (stereo partly drawn) [Example 103, methyl 3-(4-(2-((1s,4S)-4-methylcyclohexylamino)-4-((R)-tetrahydrofuran-3-yloxy)pyrimidin-5-yl)phenoxy)pyrrolidine-1-carboxylate] | + (+=<0.1) | ++ (++=0.3-0.6)
4 | CN(C)S(=O)(=O)N1CC(Oc2nc(N[C@H]3CC[C@@H](C)CC3)ncc2-c2ccc(N3CCOCC3)cc2)C1 [Example 1, N,N-dimethyl-3-(2-((1s,4s)-4-methylcyclohexylamino)-5-(4-morpholinophenyl)-pyrimidin-4-yloxy)azetidine-1-sulfonamide] | ++ (++=0.1-0.25) | +++ (+++=>0.6)
5 | CS(=O)(=O)N1CC(Oc2nc(N[C@H]3CC[C@@H](C)CC3)ncc2-c2ccc(N3CCOCC3)cc2)C1 [Example 59, N-((1s,4s)-4-methylcyclohexyl)-4-(1-(methylsulfonyl)azetidin-3-yloxy)-5-(4-morpholinophenyl)pyrimidin-2-amine] | + (+=<0.1) | ++ (++=0.3-0.6)
6 | Cc1nc(N[C@H]2CC[C@@H](C)CC2)nc(O[C@@H]2CCOC2)c1-c1ccc(N2CCOCC2)cc1 [Example 43, 4-methyl-N-((1s,4S)-4-methylcyclohexyl)-5-(4-morpholinophenyl)-6((R)-tetrahydrofuran-3-yloxy)pyrimidin-2-amine] | + (+=<0.1) | ++ (++=0.3-0.6)
7 | CC1CCC(Nc2ncc(-c3ccc(O[C@H]4CCOC4)cc3)c(OC3CCN(S(C)(=O)=O)CC3)n2)CC1 (stereo partly drawn) [Example 152, N-((1s,4s)-4-methylcyclohexyl)-4-(1-(methylsulfonyl)piperidin-4-yloxy)-5-(4-((S)-tetrahydrofuran-3-yloxy)phenyl)pyrimidin-2-amine] | +++ (+++=>0.25) | +++ (+++=>0.6)
8 | CC1CCCC(C)C1Nc1ncc(-c2ccc(O[C@H]3CCOC3)cc2)c(O[C@@H]2CCOC2)n1 (stereo partly drawn) [Example 170, N-(2,6-dimethylcyclohexyl)-4-((R)-tetrahydrofuran-3-yloxy)-5-(4-((S)-tetrahydrofuran-3-yloxy)phenyl)pyrimidin-2-amine] | + (+=<0.1) | +++ (+++=>0.6)
9 | CC1CCC(Nc2ncc(-c3ccc(OC4CCN(C(=O)N(C)C)C4)cc3)c(O[C@@H]3CCOC3)n2)CC1 (stereo partly drawn) [Example 112, N,N-dimethyl-3-(4-(2-((1s,4S)-4-methylcyclohexylamino)-4-((R)-tetrahydrofuran-3-yloxy)pyrimidin-5-yl)phenoxy)pyrrolidine-1-carboxamide] | + (+=<0.1) | ++ (++=0.3-0.6)
10 | COCCc1ccc(-c2cnc(N[C@H]3CC[C@@H](C)CC3)nc2OC2CCN(C(=O)OC)CC2)cc1 [Example 206, methyl 4-(5-(4-(2-methoxyethyl)phenyl)-2-((1s,4s)-4-methylcyclohexylamino)pyrimidin-4-yloxy)piperidine-1-carboxylate] | + (+=<0.1) | ++ (++=0.3-0.6)
11 | CC1CCC(Nc2ncc(-c3ccc(O[C@@H]4CCOC4)cc3)c(OC3CN(S(=O)(=O)N(C)C)C3)n2)CC1 (stereo partly drawn) [Example 207, N,N-dimethyl-3-(2-((1s,4s)-4-methylcyclohexylamino)-5-(4-((R)-tetrahydrofuran-3-yloxy)phenyl)pyrimidin-4-yloxy)azetidine-1-sulfonamide] | + (+=<0.1) | +++ (+++=>0.6)
12 | CS(=O)(=O)N1CC(COc2nc(N[C@H]3CC[C@@H](C)CC3)ncc2-c2ccc(N3CCOCC3)cc2)C1 [Example 80, N-((1s,4s)-4-methylcyclohexyl)-4-((1-(methylsulfonyl)azetidin-3-yl)methoxy)-5-(4-morpholinophenyl)pyrimidin-2-amine] | +++ (+++=>0.25) | ++ (++=0.3-0.6)
13 | CC1CCC(Nc2ncc(-c3ccc(O[C@@H]4CCOC4)cc3)c(OC3CCOCC3)n2)CC1 (stereo partly drawn) [Example 93, N-((1s,4s)-4-methylcyclohexyl)-4-(tetrahydro-2H-pyran-4-yloxy)-5-(4-((R)-tetrahydrofuran-3-yloxy)phenyl)pyrimidin-2-amine] | ++ (++=0.1-0.25) | +++ (+++=>0.6)
14 | C[C@H]1CC[C@@H](Nc2ncc(-c3ccc(O[C@H]4CCOC4)cc3)c(O[C@@H]3CCOC3)n2)CC1.Cl [Example 6, 4-((R)-tetrahydrofuran-3-yloxy)-5-(4-((S)-tetrahydrofuran-3-yloxy)phenyl)-N-(cis-4-methylcyclohexyl)pyrimidin-2-amine hydrochloride salt] | ++ (++=0.1-0.25) | ++ (++=0.3-0.6)
15 | CC1CCC(Nc2ncc(-c3ccc(O[C@H]4CCOC4)cc3)c(OC3CN(S(=O)(=O)N(C)C)C3)n2)CC1 (stereo partly drawn) [Example 214, N,N-dimethyl-3-(2-((1s,4s)-4-methylcyclohexylamino)-5-(4-((S)-tetrahydrofuran-3-yloxy)phenyl)pyrimidin-4-yloxy)azetidine-1-sulfonamide] | + (+=<0.1) | +++ (+++=>0.6)
16 | COCCOc1ccc(-c2cnc(N[C@H]3CC[C@@H](C)CC3)nc2OC2CN(S(C)(=O)=O)C2)cc1 [Example 153, 5-(4-(2-methoxyethoxy)phenyl)-N-((1s,4s)-4-methylcyclohexyl)-4-(1-(methylsulfonyl)azetidin-3-yloxy)pyrimidin-2-amine] | + (+=<0.1) | ++ (++=0.3-0.6)
